Assay results from US11254671B2, “Chemical compounds” (GLAXOSMITHKLINE INTELLECTUAL PROPERTY DEVELOPMENT LIMITED, priority 2017, dated 2022).

Test system: type I collagen deposition in primary lung fibroblasts
Assay: Highthroughput type I collagen deposition (scar-in-a-jar) high content screening assay
Type: cell-based
Conditions: Homo sapiens, Primary lung fibroblast, 72 h, human pulmonary fibroblasts, TGF-β 1 ng/ml, Ficoll crowding, mean of multiple experiments, read-out: mean pIC50, inhibition of type I collagen deposition (converted)
Experimental: Example 53 Highthroughput Type I Collagen Deposition (Scar-in-a-Jar) High Content Screening Assay
Highthroughput, cellular type I collagen deposition was measured by adapting a published method; scar-in-a-jar (Chen et al., 2009) to primary lung fibroblasts derived from human tissue and combining with high content analysis to permit fluorescent quantification of collagen deposited in the extracellular matrix (ECM). The human biological samples were sourced ethically and their research use was in accord with the terms of the informed consents
Test compounds were dissolved in 100% DMSO to give 10 mM (stocks) and further diluted to give half log dilutions to generate an 11 point concentration response curve. 1 ul was transferred to 384-well plates (Greiner Group, Kremsmunster, Austria, Catalogue No Greine 781280r).
Human pulmonary fibroblasts were maintained in DMEM media (Gibco, Catalogue No 21969) supplemented with 4 mM L-glutamine (Gibco Catalogue No 25030-024) and 10% heat inactivated FBS (Gibco, Catalogue No 10099-141) at 37° C. in 10% CO2. Cells were harvested and resuspended at 4×10^6 cells/ml in a T175 cell culture flask (BD Falcom, Catalogue No: 353112) containing 50 mL of culture media. After 4 days 37° C. in 10% CO2, cells were harvested and seeded at 4000 cells per well (50 μL/well) into 384-well plates (BD Falcon, Catalogue No 353962Greiner) in assay media (0.4% heat inactivated FBS, 4 mM L-glutamine). Plates were sealed with breathable seals (Sigma, Catalogue No. BEM-1). Assay plates were incubated for 72 h at 37° C. in 10% CO2.
Assay media was supplemented with 112.5 mg/ml Ficoll 70 (Sigma, Catalogue No F2878), 75 mg/ml Ficoll 400 (Sigma, Catalogue No F4375) and 50 μg/ml ascorbic acid (Sigma, Catalogue No A8960). 30 μL assay media were added to 1 μl compound (37 μM compound concentration in 1% DMSO). Diluted compounds (10 μL) were transferred to plates containing cells and incubated for 3 h at 37° C. in 10% CO2. Transforming growth factor (TGF)-β (R&D systems, Catalogue No 100-B/CF) was reconstituted to give 10 μg/mL (stock) and further diluted in assay media containing Ficoll and ascorbic acid (1 in 3333). TGF-β was added to cell plates (1 ng/ml final) and cells incubated for 72 h at 37° C. in 10% CO2.
Media was aspirated from cells and 30 μL/well 100% ice-cold methanol added and incubated at RT for 5 min to fix cells. Methanol was aspirated and cells washed with PBS (3×). To block and permeabilise, cells were incubated with PBS containing 1% BSA and 0.1% Triton X 100 for 20 min, followed by PBS wash (3×). Cells were incubated with mouse anti human type I collagen monoclonal antibody (Sigma, Catalogue No C2456) diluted 1:1000 in PBS for 24 h at 4° C. Cells were washed with PBS containing 0.1% Tween-20 (3×) and incubated with secondary alexa fluor 488 goat-anti-mouse antibody (Invitrogen, Catalogue No A11001, 1 in 500 in PBS) and Hoechst 33342 (Sigma, Catalogue No H21492), 1 in 1000 in PBS) for 1 h at RT, prior to washing with PBS containing 0.1% Tween (×4).
Type I collagen immunoreactivity was detected using the INCell 2000 Analyzer (GE Healthcare, INcell 2000) set to excitation and emission wavelengths for DAPI and FITC with laser focus and exposure adjusted to appropriate levels. Images were imported and analysed using Columbus software (Perkin Elmer) and computational algorithms to quantify “total collagen area” and “cell count”.
Data analysis was performed by determining % inhibition values for test compounds relative to the minimum (media only) and maximum responses (TGF-βstimulation) with non-linear regression analysis to determine IC50 values for test compounds.

SMILES | IC50 [µM]
CNCc1cc2nc(-c3cc(C(C)(C)S(C)(=O)=O)cc(N4CC5CCC(C4)O5)n3)ccc2[nH]1 [Example 4, 1-(5-(6-(8-oxa-3-azabicyclo[3.2.1]octan-3-yl)-4-(2-(methylsulfonyl)propan-2-yl)pyridin-2-yl)-1H-pyrrolo[3,2-b]pyridin-2-yl)-N-methylmethanamine] | 0.0398 to 1
CC[C@H]1COCCN1c1cc(C2(S(C)(=O)=O)CCOCC2)cc(-c2ccc3[nH]c(CO)cc3n2)n1 [Example 33, (5-{6-[(3S)-3-ethylmorpholin-4-yl]-4-(4-methanesulfonyloxan-4-yl)pyridin-2-yl}-1H-pyrrolo[3,2-b]pyridin-2-yl)methanol] | 0.0398 to 1
CC[C@H]1COCCN1c1cc(C2(S(C)(=O)=O)CC2)cc(-c2ccc3[nH]c(CNC)cc3n2)n1 [Example 19, [(5-{6-[(3S)-3-ethylmorpholin-4-yl]-4-(1-methanesulfonylcyclopropyl)pyridin-2-yl}-1H-pyrrolo[3,2-b]pyridin-2-yl)methyl](methyl)amine] | 0.0398 to 1
CC[C@H]1COCCN1c1cc(C(C)(C)S(N)(=O)=O)cc(-c2ccc3[nH]c(CNC)cc3n2)n1 [Example 28, 2-{2-[(3S)-3-ethylmorpholin-4-yl]-6-{2-[(methylamino)methyl]-1H-pyrrolo[3,2-b]pyridin-5-yl}pyridin-4-yl}propane-2-sulfonamide] | 0.0398 to 1
CC[C@H]1COCCN1c1cc(C2(S(=O)(=O)C3CC3)CC2)cc(-c2ccc3[nH]c(CNC)cc3n2)n1 [Example 11, (S)-1-(5-(4-(1-(cyclopropylsulfonyl)cyclopropyl)-6-(3-ethylmorpholino)pyridin-2-yl)-1H-pyrrolo[3,2-b]pyridin-2-yl)-N-methylmethanamine] | 0.0398 to 0.1
CNCc1cc2nc(-c3cc(C(C)(C)S(C)(=O)=O)cc(N4[C@@H]5CC[C@H]4COC5)n3)ccc2[nH]1 [Example 3, 1-(5-(6-((1R,5S)-3-oxa-8-azabicyclo[3.2.1]octan-8-yl)-4-(2-(methylsulfonyl)propan-2-yl)pyridin-2-yl)-1H-pyrrolo[3,2-b]pyridin-2-yl)-N-methylmethanamine] | 0.0398 to 1
CC[C@H]1COCCN1c1cc(CS(C)(=O)=O)cc(-c2ccc3[nH]c(CO)cc3n2)n1 [Example 34, (5-{6-[(3S)-3-ethylmorpholin-4-yl]-4-(methanesulfonylmethyl)pyridin-2-yl}-1H-pyrrolo[3,2-b]pyridin-2-yl)methanol] | 0.0398 to 1
CNCc1cc2nc(-c3cc(CS(C)(=O)=O)cc(N4CCOC[C@@H]4C)n3)ccc2[nH]1 [Example 6, (S)—N-methyl-1-(5-(6-(3-methylmorpholino)-4-((methylsulfonyl)methyl)pyridin-2-yl)-1H-pyrrolo[3,2-b]pyridin-2-yl)methanamine] | 0.0398 to 1
CC[C@H]1COCCN1c1cc(CS(=O)(=O)N(C)C)cc(-c2ccc3[nH]c(CO)cc3n2)n1 [Example 35, 1-{2-[(3S)-3-ethylmorpholin-4-yl]-6-[2-(hydroxymethyl)-1H-pyrrolo[3,2-b]pyridin-5-yl]pyridin-4-yl}-N,N-dimethylmethanesulfonamide] | 0.0398 to 1
CNCc1cc2nc(-c3cc(C4(S(C)(=O)=O)CC4)cc(N4CCOC[C@@H]4C)n3)ccc2[nH]1 [Example 20, ({5-[4-(1-methanesulfonylcyclopropyl)-6-[(3S)-3-methylmorpholin-4-yl]pyridin-2-yl]-1H-pyrrolo[3,2-b]pyridin-2-yl}methyl)(methyl)amine] | 0.0398 to 1
CNCc1cc2nc(-c3cc(C(F)(F)S(C)(=O)=O)cc(N4CCOC[C@@H]4C)n3)ccc2[nH]1 [Example 12, (S)-1-(5-(4-(difluoro(methylsulfonyl)methyl)-6-(3-methylmorpholino)pyridin-2-yl)-1H-pyrrolo[3,2-b]pyridin-2-yl)-N-methylmethanamine] | 0.0398 to 1
CC[C@H]1COCCN1c1cc(C2(S(C)(=O)=O)CCOCC2)cc(-c2ccc3[nH]c(CN)cc3n2)n1 [Example 23, 1-(5-{6-[(3S)-3-ethylmorpholin-4-yl]-4-(4-methanesulfonyloxan-4-yl)pyridin-2-yl}-1H-pyrrolo[3,2-b]pyridin-2-yl)methanamine] | 0.0398 to 1
CCS(=O)(=O)C(C)(C)c1cc(-c2ccc3[nH]c(CNC)cc3n2)nc(N2CCOC[C@@H]2C)c1 [Example 7, (S)-1-(5-(4-(2-(ethylsulfonyl)propan-2-yl)-6-(3-methylmorpholino)pyridin-2-yl)-1H-pyrrolo[3,2-b]pyridin-2-yl)-N-methylmethanamine] | 0.0398 to 1
CC[C@H]1COCCN1c1cc(C2(S(=O)(=O)N(C)C)CCOCC2)cc(-c2ccc3[nH]c(CNC)cc3n2)n1 [Example 31, 4-{2-[(3S)-3-ethylmorpholin-4-yl]-6-{2-[(methylamino)methyl]-1H-pyrrolo[3,2-b]pyridin-5-yl}pyridin-4-yl}-N,N-dimethyloxane-4-sulfonamide] | 0.0398 to 0.1
CC[C@H]1COCCN1c1cc(CS(=O)(=O)C2CC2)cc(-c2ccc3[nH]c(CNC)cc3n2)n1 [Example 10, (S)-1-(5-(4-((cyclopropylsulfonyl)methyl)-6-(3-ethylmorpholino)pyridin-2-yl)-1H-pyrrolo[3,2-b]pyridin-2-yl)-N-methylmethanamine] | 0.0398 to 1
CC[C@H]1COCCN1c1cc(C(C)(C)S(=O)(=O)C2CC2)cc(-c2ccc3[nH]c(CNC)cc3n2)n1 [Example 9, (S)-1-(5-(4-(2-(cyclopropylsulfonyl)propan-2-yl)-6-(3-ethylmorpholino)pyridin-2-yl)-1H-pyrrolo[3,2-b]pyridin-2-yl)-N-methylmethanamine] | 0.0398 to 0.1
CNCc1cc2nc(-c3cc(C(C)(C)S(C)(=O)=O)cc(N4CCOC[C@@H]4C)n3)ccc2[nH]1 [Example 2, (S)—N-methyl-1-(5-(6-(3-methylmorpholino)-4-(2-(methylsulfonyl)propan-2-yl)pyridin-2-yl)-1H-pyrrolo[3,2-b]pyridin-2-yl)methanamine] | 0.0398 to 1
CC[C@H]1COCCN1c1cc(CS(=O)(=O)N(C)C)cc(-c2ccc3[nH]c(CNC)cc3n2)n1 [Example 17, (S)-1-(2-(3-ethylmorpholino)-6-(2-((methylamino)methyl)-1H-pyrrolo[3,2-b]pyridin-5-yl)pyridin-4-yl)-N,N-dimethylmethanesulfonamide] | 0.0398 to 1
CC[C@H]1COCCN1c1cc(C(C)(C)S(C)(=O)=O)cc(-c2ccc3[nH]c(CN)cc3n2)n1 [Example 21, 1-(5-{6-[(3S)-3-ethylmorpholin-4-yl]-4-(2-methanesulfonylpropan-2-yl)pyridin-2-yl}-1H-pyrrolo[3,2-b]pyridin-2-yl)methanamine] | 0.0398 to 1
CNCc1cc2nc(-c3cc(C(C)(C)S(C)(=O)=O)cc(N4C5CCCC4COC5)n3)ccc2[nH]1 [Example 5, 1-(5-(6-(3-oxa-9-azabicyclo[3.3.1]nonan-9-yl)-4-(2-(methylsulfonyl)propan-2-yl)pyridin-2-yl)-1H-pyrrolo[3,2-b]pyridin-2-yl)-N-methylmethanamine] | 0.0398 to 1
CC[C@H]1COCCN1c1cc(CS(=O)(=O)NC)cc(-c2ccc3[nH]c(CNC)cc3n2)n1 [Example 30, 1-{2-[(3S)-3-ethylmorpholin-4-yl]-6-{2-[(methylamino)methyl]-1H-pyrrolo[3,2-b]pyridin-5-yl}pyridin-4-yl}-N-methylmethanesulfonamide] | 0.0398 to 1
CNCc1cc2nc(-c3cc(CS(C)(=O)=O)cc(N4CC5CCC(C4)O5)n3)ccc2[nH]1 [Example 25, ({5-[4-(methanesulfonylmethyl)-6-{8-oxa-3-azabicyclo[3.2.1]octan-3-yl}pyridin-2-yl]-1H-pyrrolo[3,2-b]pyridin-2-yl}methyl)(methyl)amine] | 0.0398 to 1
CC[C@H]1COCCN1c1cc(C(C)(C)S(C)(=O)=O)cc(-c2ccc3[nH]c(CO)cc3n2)n1 [Example 32] | 0.0398 to 1
